# In patent US20150274639A1, “METHODS OF USE FOR COMPOSITIONS COMPRISING A BIOCIDAL POLYAMINE” (Curza Global, LLC, priority 2013, published 2015):
# “And” between values parts separate entries of the source, which are not always exact repeats. Identical values can stand only once.
# Legend:
# MRSA = test: MIC in CAMHB, 96-well plate (10^5 to 10^2 CFU/mL in 24 hours); assay type: cell-based, methicillin-resistant Staphylococcus aureus; settings: Staphylococcus aureus, MRSA
# Experimental: To determine the MIC of polyamine compounds, the protocol described herein was used.
# In brief, a 0.5 McFarland of each bacterial isolate was made. A 0.5 McFarland is a measure of turbidity in a liquid sample that contains approximately 1×10̂^8 CFU/mL. The 0.5 McFarland standard was diluted in cation adjusted Mueller Hinton Broth (CAMHB), and […], of broth were added to a well of a 96-well plate. In addition, 50 μL of CAMHB that contained a desired concentration of antimicrobial were also added to the well for a final volume of 100 and a final concentration of approximately 5×10^4 CFU/well (which equated to approximately 5×10^5 CFU/mL). Each well contained a desired amount of polyamine compound in order to experimentally determine the MIC. Each 96-well plate was incubated at 37° C. for 24 hours. The contents of each well were plated on tryptic soy agar (TSA). TSA plates were incubated for 37° C. for 24 hours after which the number of CFU were counted and used to calculate the CFU/mL that remained after exposure to varying concentrations of compound. This procedure was repeated n=8 times for each concentration of antimicrobial. […]
# A. baumannii biofilm [1] = test: EBEC, high number biofilms on PEEK membranes (10^9 to 10^2 CFU/PEEK membrane in 24 hours); assay type: cell-based, Acinetobacter baumannii; settings: Table 3B titled MICs, group head missing, values match EBEC; for MIC: Acinetobacter baumannii
# A. baumannii biofilm [2] = test: as above; assay type: cell-based, Acinetobacter baumannii; settings: for EBEC, A. baumannii: Table 4; for EBEC relative to MIC against A. baumannii: EBEC greater than the MIC by this factor
# Experimental: In addition to determining the MIC and the MBEC of polyamine compounds against planktonic bacteria and low number biofilms, our group wanted to determine the efficacy of polyamine compounds against high number biofilms. To do so, biofilms were grown on the surface of polyetheretherketone (PEEK) membranes using a membrane biofilm reactor. This reactor is similar to the CDC biofilm reactor, but rather than growing biofilms on coupon surfaces, the reactor was modified to hold PEEK membranes. In short, to grow biofilms within this system, 500 mL of brain heart infusion (BHI) broth were inoculated with 1 mL of a 0.5 McFarland. The reactor was placed on a hot plate set at 34° C. and the bacteria were grown under batch conditions for 24 hours. Following this protocol, biofilms typically grow to 10^9 CFU/PEEK membrane. […] A solution of 10% BHI was then flowed through the reactor at a rate of 6.94 mL/min for an additional 24 hours. PEEK membranes were then removed and placed into 2 mL of CAMHB that contained a desired concentration of polyamine compound or antibiotic. The EBEC was defined as the concentration of antimicrobial required to reduce a biofilm from approximately 10^9 CFU/PEEK membrane to approximately 10^2 CFU/PEEK membrane in a 24-hour period.
# In addition to determining the MIC and the MBEC of compounds against planktonic bacteria and low number biofilms, the efficacy of the compounds of the invention against high number biofilms is determined. To do so, biofilms are grown on the surface of PEEK membranes using a membrane biofilm reactor (Williams, D. L., Haymond, B. S. & Bloebaum, R. D. Use of delrin plastic in a modified CDC biofilm reactor. Res J Microbiol 6, 425-429 (2011); Williams, D. L., Woodbury, K. L., Haymond, B. S., Parker, A. E. & Bloebaum, R. D. A modified CDC biofilm reactor to produce mature biofilms on the surface of PEEK membranes for an in vivo animal model application. Curr Microbiol 62, 1657-1663 (2011); Williams, D. L. et al., In Vivo Efficacy of a Silicone—Cationic Steroid Antimicrobial Coating to Prevent Implant-Related Infection. Biomaterials 33, 8641-8656 (2012); Williams, D. L. et al., Experimental model of biofilm implant-related osteomyelitis to test combination biomaterials using biofilms as initial inocula. J Biomed Mat Res A 100, 1888-1900 (2012)). This reactor is similar to the CDC biofilm reactor, but rather than growing biofilms on coupon surfaces, the reactor was modified to hold PEEK membranes. In short, to grow biofilms within this system, 500 mL of brain heart infusion (BHI) broth is inoculated with 1 mL of a 0.5 McFarland. The reactor is placed on a hot plate set at 34° C. and the bacteria grown under batch conditions for 24 hours. A solution of 10% BHI will then be flowed through the reactor at a rate of 6.94 mL/min for an additional 24 hours. Following this protocol, biofilms typically grow to 10^9 CFU/PEEK membrane. PEEK membranes is removed and placed into 2 mL of CAMHB that contain a desired concentration of the test compound. The EBEC is defined as the concentration of antimicrobial required to reduce a biofilm from approximately 10^9 CFU/PEEK membrane to approximately 10^2 CFU/PEEK membrane in a 24-hour period.
# EBEC data were collected to determine the efficacy of CZ-52, CZ-58 and traditional antibiotics against high number biofilms containing approximately 10^9 CFU grown on the surface of a polyetheretherketone (PEEK) membrane. […] In contrast, at 250 μg/mL CZ-52 was able to reduce MRSA biofilms by greater than 7 log10 units in a 24-hour period. Although the MIC of CZ-58 was lower against MRSA compared to A. baumannii, CZ-58 had greater activity against biofilms of A. baumannii than against MRSA biofilms in the EBEC assay. […] Although the MIC of CZ-58 was “high” compared to MICs of traditional antibiotics, the efficacy against biofilms was promising.
# MRSA biofilm = test: MBEC, MBEC Inoculation Tray by Innovotech (to 10^2 CFU/peg in 24 hours); assay type: cell-based, methicillin-resistant Staphylococcus aureus; settings: for MIC: Staphylococcus aureus, MRSA, Table 3A titled MICs, group head missing, values match MBEC; for MBEC, MRSA: Table 4
Compound,"MIC (MRSA; Table 3A, first MRSA column)",MIC (MRSA; Table 4),MIC (A. baumannii biofilm [1]),"EBEC, A. baumannii (A. baumannii biofilm [2])",MIC (MRSA biofilm),"MBEC, MRSA (MRSA biofilm)","MIC, A. baumannii (A. baumannii biofilm [1])",EBEC relative to MIC against A. baumannii (A. baumannii biofilm [2]),"MIC (MRSA; Table 5, class symbols)",activity against A. baumannii biofilms relative to MRSA biofilms (A. baumannii biofilm [2]; greater activity against A. baumannii biofilms)
NCCCNCCCNCc1cc(CNCCCNCCCN)cc(CNCCCNCCCN)c1 [CZ-52],3 µg/mL,3 µg/mL and 6 µM,> 5000 µg/mL,"~7,000 μg/mL and ~14,000 μM",20 µg/mL,20 μg/mL and 40 μM,,,,
Polymyxin B sulfate [reference compound],,,,"1,000 μg/mL and 722 μM",,,"1,000 μg/mL","1,000 ×",,
NCCCNCCCNCc1cccc(CNCCCNCCCN)c1 [CZ-25],40 µg/mL,40 µg/mL and 110 µM,> 5000 µg/mL,"~7,500 μg/mL",25 µg/mL,25 μg/mL and 69 μM,,,,
NCCCNCCCNCc1cc(CNCCCNCCCN)cc(-c2ccccc2)c1 [CZ-58],,6 µg/mL and 13.6 µM,,400 μg/mL and 908 μM,,30 μg/mL and 68 μM,,~13 ×,< 50 µM,10 fold
